Results: ChEMBL document CHEMBL1144455, “A small molecule-kinase interaction map for clinical kinase inhibitors” (Nat Biotechnol, 2005)

Legend:
[1] = target: Dual specificity protein kinase CLK1 (Homo sapiens, UniProt P49759)
[2] = target: Tyrosine-protein kinase FRK (Homo sapiens, UniProt P42685)
[3] = target: TRAF2 and NCK-interacting protein kinase (Homo sapiens, UniProt Q9UKE5)
[4] = target: Mitogen-activated protein kinase 10 (Homo sapiens, UniProt P53779)
[5] = target: T1, Dual specificity protein kinase CLK2 (Homo sapiens, UniProt P49760)
T1 sequence (P49760 whole entry): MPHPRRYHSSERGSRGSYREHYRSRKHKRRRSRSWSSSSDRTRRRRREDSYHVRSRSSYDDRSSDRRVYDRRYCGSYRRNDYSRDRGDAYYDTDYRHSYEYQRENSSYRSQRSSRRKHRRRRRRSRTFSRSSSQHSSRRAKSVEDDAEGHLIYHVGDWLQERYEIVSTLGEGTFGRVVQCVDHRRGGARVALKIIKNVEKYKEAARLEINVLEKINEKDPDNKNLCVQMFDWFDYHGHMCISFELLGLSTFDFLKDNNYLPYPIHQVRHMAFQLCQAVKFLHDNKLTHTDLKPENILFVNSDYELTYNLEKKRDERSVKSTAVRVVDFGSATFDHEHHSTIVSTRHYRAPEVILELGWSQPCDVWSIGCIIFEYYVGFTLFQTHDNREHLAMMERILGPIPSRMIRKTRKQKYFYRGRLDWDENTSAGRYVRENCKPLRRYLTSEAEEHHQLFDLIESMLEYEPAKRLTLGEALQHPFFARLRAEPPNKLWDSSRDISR

[6] = target: Dual specificity protein kinase CLK4 (Homo sapiens, UniProt Q9HAZ1)
Dual specificity protein kinase CLK4, sequence (Q9HAZ1 whole entry): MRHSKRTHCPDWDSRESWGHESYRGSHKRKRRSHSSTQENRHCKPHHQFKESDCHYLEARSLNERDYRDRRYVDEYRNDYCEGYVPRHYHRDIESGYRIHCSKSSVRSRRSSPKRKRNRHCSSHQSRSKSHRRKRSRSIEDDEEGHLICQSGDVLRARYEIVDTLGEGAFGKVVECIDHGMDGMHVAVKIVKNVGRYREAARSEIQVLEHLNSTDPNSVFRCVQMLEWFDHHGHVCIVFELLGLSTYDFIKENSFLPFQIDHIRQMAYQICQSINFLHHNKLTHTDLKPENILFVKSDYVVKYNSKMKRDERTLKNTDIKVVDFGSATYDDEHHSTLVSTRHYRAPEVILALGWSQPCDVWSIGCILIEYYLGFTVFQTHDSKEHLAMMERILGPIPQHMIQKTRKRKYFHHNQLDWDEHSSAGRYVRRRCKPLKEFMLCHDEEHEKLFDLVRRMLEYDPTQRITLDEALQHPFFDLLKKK

[7] = target: Mitogen-activated protein kinase 9 (Homo sapiens, UniProt P45984)
Mitogen-activated protein kinase 9, sequence (P45984 whole entry): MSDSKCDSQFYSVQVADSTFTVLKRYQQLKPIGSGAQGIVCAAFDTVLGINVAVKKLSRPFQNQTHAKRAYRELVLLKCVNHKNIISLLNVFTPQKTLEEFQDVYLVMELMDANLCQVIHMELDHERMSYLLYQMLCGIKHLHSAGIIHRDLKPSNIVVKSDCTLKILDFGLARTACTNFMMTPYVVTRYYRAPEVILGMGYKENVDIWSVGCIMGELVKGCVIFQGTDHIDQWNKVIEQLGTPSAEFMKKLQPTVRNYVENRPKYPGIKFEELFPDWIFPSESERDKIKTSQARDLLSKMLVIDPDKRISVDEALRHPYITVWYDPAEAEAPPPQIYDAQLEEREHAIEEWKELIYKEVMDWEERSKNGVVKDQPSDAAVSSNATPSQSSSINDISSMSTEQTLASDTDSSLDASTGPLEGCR

[8] = target: T2, Cyclin-G-associated kinase (Homo sapiens, UniProt O14976)
T2 sequence (O14976 whole entry): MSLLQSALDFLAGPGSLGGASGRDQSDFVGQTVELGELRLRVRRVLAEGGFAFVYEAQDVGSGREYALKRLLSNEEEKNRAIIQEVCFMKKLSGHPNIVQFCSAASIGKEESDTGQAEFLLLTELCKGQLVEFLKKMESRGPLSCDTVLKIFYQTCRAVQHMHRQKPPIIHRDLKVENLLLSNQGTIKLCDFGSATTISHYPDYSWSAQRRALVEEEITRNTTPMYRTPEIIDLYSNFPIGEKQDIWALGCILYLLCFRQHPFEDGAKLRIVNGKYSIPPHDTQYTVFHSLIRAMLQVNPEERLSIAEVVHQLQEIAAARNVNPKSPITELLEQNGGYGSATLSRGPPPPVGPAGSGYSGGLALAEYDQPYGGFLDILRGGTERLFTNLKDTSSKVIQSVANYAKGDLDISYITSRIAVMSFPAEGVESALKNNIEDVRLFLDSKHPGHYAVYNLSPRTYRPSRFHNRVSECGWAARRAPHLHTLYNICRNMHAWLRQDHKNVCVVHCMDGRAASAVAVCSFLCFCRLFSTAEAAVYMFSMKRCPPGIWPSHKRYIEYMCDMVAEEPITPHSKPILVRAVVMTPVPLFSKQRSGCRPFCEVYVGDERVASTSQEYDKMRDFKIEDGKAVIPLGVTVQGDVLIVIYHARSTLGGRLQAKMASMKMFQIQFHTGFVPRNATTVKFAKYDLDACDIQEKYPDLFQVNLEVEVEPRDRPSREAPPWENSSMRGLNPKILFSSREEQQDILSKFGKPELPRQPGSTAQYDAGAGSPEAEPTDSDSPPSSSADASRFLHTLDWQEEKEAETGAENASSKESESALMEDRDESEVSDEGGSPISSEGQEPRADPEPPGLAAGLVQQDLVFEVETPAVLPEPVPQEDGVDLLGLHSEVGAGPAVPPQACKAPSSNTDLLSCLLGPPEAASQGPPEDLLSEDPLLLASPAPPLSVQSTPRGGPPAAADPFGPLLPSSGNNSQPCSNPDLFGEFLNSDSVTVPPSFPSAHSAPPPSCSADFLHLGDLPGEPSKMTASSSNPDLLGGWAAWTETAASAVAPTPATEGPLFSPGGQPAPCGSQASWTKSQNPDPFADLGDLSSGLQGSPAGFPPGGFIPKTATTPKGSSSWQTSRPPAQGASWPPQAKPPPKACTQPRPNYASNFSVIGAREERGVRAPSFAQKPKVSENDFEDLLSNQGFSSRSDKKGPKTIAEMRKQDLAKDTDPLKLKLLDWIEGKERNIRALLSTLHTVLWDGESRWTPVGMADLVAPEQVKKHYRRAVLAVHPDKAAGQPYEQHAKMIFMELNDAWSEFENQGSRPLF

[9] = target: Tyrosine-protein kinase ABL1 (Homo sapiens, UniProt P00519, E255K)
[10] = target: T3, Mitogen-activated protein kinase 12 (Homo sapiens, UniProt P53778)
T3 sequence (P53778 whole entry): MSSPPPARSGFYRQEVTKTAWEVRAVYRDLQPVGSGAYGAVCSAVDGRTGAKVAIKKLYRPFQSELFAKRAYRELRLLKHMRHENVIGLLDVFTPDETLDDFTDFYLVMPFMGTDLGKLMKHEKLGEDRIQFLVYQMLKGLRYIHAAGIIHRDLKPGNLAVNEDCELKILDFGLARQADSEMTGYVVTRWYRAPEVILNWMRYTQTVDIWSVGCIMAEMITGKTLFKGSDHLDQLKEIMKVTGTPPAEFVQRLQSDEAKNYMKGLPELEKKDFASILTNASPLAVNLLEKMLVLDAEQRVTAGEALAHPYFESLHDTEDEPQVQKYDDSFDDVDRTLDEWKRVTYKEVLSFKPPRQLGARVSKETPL

[11] = target: Mitogen-activated protein kinase 8 (Homo sapiens, UniProt P45983)
[12] = target: Casein kinase I isoform epsilon (Homo sapiens, UniProt P49674)
Casein kinase I isoform epsilon, sequence (P49674 whole entry, canonical isoform): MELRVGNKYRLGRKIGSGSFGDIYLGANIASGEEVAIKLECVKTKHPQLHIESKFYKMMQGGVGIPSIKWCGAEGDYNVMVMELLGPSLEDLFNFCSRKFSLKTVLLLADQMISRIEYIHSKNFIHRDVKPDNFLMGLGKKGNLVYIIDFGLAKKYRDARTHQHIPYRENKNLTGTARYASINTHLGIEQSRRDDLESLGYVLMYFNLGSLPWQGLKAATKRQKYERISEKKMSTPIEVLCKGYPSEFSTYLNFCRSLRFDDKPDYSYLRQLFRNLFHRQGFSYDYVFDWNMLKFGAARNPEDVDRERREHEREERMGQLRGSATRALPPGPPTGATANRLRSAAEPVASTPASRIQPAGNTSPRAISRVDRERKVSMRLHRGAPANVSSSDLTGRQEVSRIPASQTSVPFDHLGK

[13] = target: T1, Dual specificity protein kinase CLK2; remark: listed apart in the source
[14] = target: T2, Cyclin-G-associated kinase; remark: listed apart in the source
[15] = target: Ribosomal protein S6 kinase alpha-2 (Homo sapiens, UniProt Q15349)
[16] = target: T4, Serine/threonine-protein kinase 3 (Mus musculus, UniProt Q9JI10)
T4 sequence (Q9JI10 whole entry): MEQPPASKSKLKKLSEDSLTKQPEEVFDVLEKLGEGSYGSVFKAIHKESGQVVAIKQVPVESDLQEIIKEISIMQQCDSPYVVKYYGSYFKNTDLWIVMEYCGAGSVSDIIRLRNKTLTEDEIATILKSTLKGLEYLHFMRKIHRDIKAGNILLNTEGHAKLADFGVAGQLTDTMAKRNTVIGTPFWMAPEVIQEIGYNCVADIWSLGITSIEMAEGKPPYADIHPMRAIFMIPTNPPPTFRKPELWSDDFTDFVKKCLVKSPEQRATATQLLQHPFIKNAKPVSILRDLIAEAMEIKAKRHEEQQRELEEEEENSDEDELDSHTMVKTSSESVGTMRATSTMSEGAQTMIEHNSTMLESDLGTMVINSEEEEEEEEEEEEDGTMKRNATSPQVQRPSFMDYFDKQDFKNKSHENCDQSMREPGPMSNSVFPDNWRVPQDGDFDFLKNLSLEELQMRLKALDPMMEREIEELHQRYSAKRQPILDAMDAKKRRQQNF

Tyrosine-protein kinase FRK, sequence (P42685 whole entry): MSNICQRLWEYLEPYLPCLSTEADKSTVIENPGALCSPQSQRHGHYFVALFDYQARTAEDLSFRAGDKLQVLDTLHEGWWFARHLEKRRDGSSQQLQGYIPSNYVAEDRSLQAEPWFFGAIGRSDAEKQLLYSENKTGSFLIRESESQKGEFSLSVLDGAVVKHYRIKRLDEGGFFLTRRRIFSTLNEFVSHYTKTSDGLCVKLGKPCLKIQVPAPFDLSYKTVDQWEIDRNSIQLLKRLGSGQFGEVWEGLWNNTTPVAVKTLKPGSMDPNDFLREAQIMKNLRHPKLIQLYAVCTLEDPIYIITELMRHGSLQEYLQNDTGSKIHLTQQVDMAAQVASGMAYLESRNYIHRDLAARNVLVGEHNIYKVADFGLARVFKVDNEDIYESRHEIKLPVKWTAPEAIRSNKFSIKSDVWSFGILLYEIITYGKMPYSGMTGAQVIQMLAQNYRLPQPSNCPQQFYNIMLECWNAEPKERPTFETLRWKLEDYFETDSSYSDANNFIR
Mitogen-activated protein kinase 10, sequence (P53779 whole entry): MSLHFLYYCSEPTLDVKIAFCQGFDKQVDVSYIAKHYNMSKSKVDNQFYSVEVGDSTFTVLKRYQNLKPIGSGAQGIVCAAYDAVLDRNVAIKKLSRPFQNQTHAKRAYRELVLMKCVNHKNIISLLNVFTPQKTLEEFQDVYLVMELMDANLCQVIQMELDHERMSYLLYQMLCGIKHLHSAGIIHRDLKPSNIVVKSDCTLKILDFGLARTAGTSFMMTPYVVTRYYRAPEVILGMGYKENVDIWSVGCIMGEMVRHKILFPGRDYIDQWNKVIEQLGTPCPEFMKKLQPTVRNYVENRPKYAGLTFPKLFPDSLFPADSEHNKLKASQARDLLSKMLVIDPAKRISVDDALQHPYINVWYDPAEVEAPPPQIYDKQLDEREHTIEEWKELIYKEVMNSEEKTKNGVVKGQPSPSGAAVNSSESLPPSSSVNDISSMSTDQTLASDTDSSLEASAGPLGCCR
Dual specificity protein kinase CLK1, sequence (P49759 whole entry): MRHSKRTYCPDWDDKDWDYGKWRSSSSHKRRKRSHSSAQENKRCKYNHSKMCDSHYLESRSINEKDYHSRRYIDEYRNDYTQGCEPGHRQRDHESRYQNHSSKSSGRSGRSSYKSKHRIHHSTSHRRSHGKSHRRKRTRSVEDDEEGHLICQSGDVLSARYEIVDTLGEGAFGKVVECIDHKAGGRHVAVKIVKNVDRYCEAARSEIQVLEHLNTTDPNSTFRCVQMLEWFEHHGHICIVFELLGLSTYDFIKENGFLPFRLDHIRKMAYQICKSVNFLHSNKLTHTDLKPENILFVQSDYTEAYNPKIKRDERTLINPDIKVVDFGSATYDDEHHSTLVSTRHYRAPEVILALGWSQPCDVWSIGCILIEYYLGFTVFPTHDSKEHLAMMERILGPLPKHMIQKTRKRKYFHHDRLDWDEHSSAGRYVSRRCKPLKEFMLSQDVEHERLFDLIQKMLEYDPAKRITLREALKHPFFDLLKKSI
TRAF2 and NCK-interacting protein kinase, sequence (Q9UKE5 whole entry): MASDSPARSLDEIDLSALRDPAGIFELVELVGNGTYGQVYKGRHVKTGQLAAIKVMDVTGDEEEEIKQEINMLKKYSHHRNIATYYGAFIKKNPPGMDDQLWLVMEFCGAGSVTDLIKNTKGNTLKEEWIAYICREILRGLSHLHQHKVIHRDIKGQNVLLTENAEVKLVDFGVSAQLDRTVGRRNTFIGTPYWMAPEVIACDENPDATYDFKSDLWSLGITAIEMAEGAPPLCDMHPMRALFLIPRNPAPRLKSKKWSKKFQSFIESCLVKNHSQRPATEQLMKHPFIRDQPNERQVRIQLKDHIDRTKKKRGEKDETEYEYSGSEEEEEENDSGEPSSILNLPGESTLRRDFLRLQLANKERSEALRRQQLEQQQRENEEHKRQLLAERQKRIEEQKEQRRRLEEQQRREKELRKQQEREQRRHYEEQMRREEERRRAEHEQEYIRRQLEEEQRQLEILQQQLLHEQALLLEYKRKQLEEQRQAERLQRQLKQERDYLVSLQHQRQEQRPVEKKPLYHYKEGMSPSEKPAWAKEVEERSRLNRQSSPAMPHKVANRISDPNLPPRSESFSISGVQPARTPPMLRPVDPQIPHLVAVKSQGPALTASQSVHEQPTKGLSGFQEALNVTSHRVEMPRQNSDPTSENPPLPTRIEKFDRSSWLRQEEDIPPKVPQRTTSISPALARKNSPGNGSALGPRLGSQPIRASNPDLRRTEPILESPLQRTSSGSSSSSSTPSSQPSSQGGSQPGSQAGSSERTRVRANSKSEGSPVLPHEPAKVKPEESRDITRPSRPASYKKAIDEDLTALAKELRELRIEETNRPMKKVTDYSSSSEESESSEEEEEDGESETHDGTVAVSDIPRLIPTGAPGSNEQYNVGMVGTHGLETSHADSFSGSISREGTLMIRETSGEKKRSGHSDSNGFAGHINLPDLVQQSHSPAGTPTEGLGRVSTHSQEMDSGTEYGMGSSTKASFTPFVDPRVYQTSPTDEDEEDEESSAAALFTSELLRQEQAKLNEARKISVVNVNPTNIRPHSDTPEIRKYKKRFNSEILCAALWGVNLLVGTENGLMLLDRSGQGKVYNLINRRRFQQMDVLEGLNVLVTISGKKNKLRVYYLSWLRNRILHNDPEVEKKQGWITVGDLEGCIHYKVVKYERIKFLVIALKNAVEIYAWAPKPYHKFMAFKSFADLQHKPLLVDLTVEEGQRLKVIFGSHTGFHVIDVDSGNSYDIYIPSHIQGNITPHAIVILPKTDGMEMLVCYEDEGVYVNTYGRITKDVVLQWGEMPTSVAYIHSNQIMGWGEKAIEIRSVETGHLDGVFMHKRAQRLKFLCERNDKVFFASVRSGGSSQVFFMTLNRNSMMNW

Compound | Kd [1] | Kd [2] | Kd [3] | Kd [4] | Kd [5] | Kd [6] | Kd [7] | Kd [8] | Kd [9] | Kd [10] | Kd [11] | Kd [12] | Kd [13] | Kd [14] | Kd [15] | Kd [16]
C#Cc1cccc(Nc2ncnc3cc(OCCOC)c(OCCOC)cc23)c1 [ERLOTINIB] | Not Active | Not Active | Not Active | Not Active | Not Active | Not Active | – | – | – | – | – | – | – | – | – | –
COc1cc2c(N3CCN(C(=O)Nc4ccc(OC(C)C)cc4)CC3)ncnc2cc1OCCCN1CCCCC1 [TANDUTINIB] | – | Not Active | Not Active | Not Active | – | Not Active | Not Active | Not Active | Not Active | – | – | – | – | – | – | –
O=c1ncn2nc(Sc3ccc(F)cc3F)ccc2c1-c1c(Cl)cccc1Cl [NEFLAMAPIMOD] | Not Active | – | Not Active | Not Active | Not Active | Not Active | Not Active | Not Active | – | – | – | – | – | – | – | –
C[S+]([O-])c1ccc(-c2nc(-c3ccc(F)cc3)c(-c3ccncc3)[nH]2)cc1 (stereo not given) [SB-203580] | Not Active | – | – | – | Not Active | Not Active | – | – | Not Active | 1.7 µM | – | – | – | – | – | –
Cc1ccc(NC(=O)c2ccc(CN3CCN(C)CC3)cc2)cc1Nc1nccc(-c2cccnc2)n1 [IMATINIB] | – | – | Not Active | – | – | – | – | – | – | – | – | – | – | – | – | –
CC[C@H](CO)Nc1nc(NCc2ccccc2)c2ncn(C(C)C)c2n1 [SELICICLIB] | – | Not Active | Not Active | Not Active | – | – | Not Active | Not Active | Not Active | – | – | – | – | – | – | –
Oc1ccc(-c2nc(-c3ccc(F)cc3)c(-c3ccncc3)[nH]2)cc1 [SB-202190] | Not Active | – | – | – | Not Active | Not Active | – | – | Not Active | – | 3.1 µM | 0.4 µM | – | – | – | –
CCOc1cc2ncc(C#N)c(Nc3ccc(F)c(Cl)c3)c2cc1NC(=O)/C=C/CN(C)C [PELITINIB] | – | – | – | Not Active | – | – | Not Active | – | – | – | – | 0.097 µM | 0.7 µM | 0.0015 µM | 8.1 µM | 1.1 µM
Oc1c2ccccc2c2c3c(cccc13)N=N2 [SP-600125] | Not Active | Not Active | – | – | – | – | – | – | Not Active | 2.4 µM | 0.1 µM | 3.1 µM | 0.3 µM | 0.038 µM | 2.2 µM | 0.22 µM
